{"source": "patent US20200093737A1", "about": "“PHARMACEUTICAL DOSAGE FORMS CONTAINING TASK-1 AND TASK-3 CHANNEL INHIBITORS, AND THE USE OF SAME IN BREATHING DISORDER THERAPY” (priority 2016, published 2020)", "system": "upper airways", "test": "Animal model of obstructive sleep apnoea in the pig (collapsibility of the upper airways under negative pressure)", "assay_type": "in vivo, German Landrace pigs", "source_text": "The effects of the formulations according to the invention of the inhibitors of TASK-1 and/or TASK-3 channels on the activation threshold of the genioglossus muscle by negative pressure and the collapsibility of the upper airways were investigated in a pig model for obstructive sleep apnoea. Using negative pressure, it is possible to induce collapse and thus obstruction of the upper airways in anaesthetized, spontaneously breathing pigs [Wirth et al., Sleep 36, 699-708 (2013)]. German Landrace pigs were used for the model. Since the nasal axis is in an almost vertical position in humans in a horizontal sleeping position, the pigs in the experiments were fixed in a sitting position (70 degrees), wherein the nose pointed upwards. After nasal administration, the formulation therefore flowed downwards over all regions of the upper airways. The pigs were anaesthetized and tracheotomized. One cannula each was inserted into the rostral and the caudal part of the trachea. Using a T connector, the rostral cannula was connected on the one hand to a device generating negative pressure and on the other hand to the caudal cannula. Using a T connector, the caudal cannula was connected to the rostral cannula and to a tube which allowed spontaneous breathing circumventing the upper airways. By appropriate closing and opening of the tubes it was thus possible for the pig to change from normal nasal breathing to breathing via the caudal cannula during the time when the upper airways were isolated and were connected to the device for generating negative pressure. The muscle activity of the Musculus genioglossus was recorded by electromyogram (EMG). At certain points in time, the collapsibility of the upper airways was tested by having the pig breathe via the caudal cannula and applying negative pressures of −50, −100 and −150 mbar (corresponding to −50, −100 and −150 cm water column (cm H2O)) to the upper airways. This caused the upper airways to collapse, which manifested itself in an interruption of the airflow and a pressure drop in the tube system. This test was conducted prior to administration of the test substance and at certain intervals after administration of the test substance. An appropriately effective test substance could prevent this collapse of the airways in the inspiratory phase. After changeover from nasal breathing to breathing via the caudal cannula, it was not possible to measure any EMG activity of the Musculus genioglossus in the anaesthetized pig. As a further test, the negative pressure at which EMG activity restarted was then determined. This threshold value was, if a test substance was effective, shifted to more positive values. The test was likewise conducted prior to the administration of the test substance and at certain intervals after the administration of the test substance. The test substance was administered by the nasal route. The results shown in the tables which follow were conducted with the compounds listed in Table 1 as Example 1, Example 3 and Example 4. Unless stated otherwise, the data were measured at a negative pressure of −100 mbar (corresponding to −100 cm water column (cm H2O)) on the upper airways. The active ingredients listed in Table 1 as Example 1, Example 3 and Example 4 were dissolved in the various formulations listed in Table 2 below and administered in an amount of 0 μg, 3 μg, 10 μg, 30 μg or 100 μg per pig. The active ingredient formulation or the pure vehicle was each administered with a pipette at a volume of 400 μl in each nostril. The duration of action in this pig model is defined as the time [min] in which a collapse of the upper airways was not observed in any animal, as a mean value of the specified number of animals. A duration of action specified as “>” X min signifies that the experiment was terminated at X min and up to this point a collapse of the upper airways was still not observed in any animal.", "note": "Marks after values point to notes of the source that are not given here.", "data": [{"smiles": "O=C(c1ccccc1F)N1CCN(Cc2c(-c3ccc(Br)cc3)nc3ccccn23)CC1", "note": "[Example 4, (4-{[2-(4-bromophenyl)imidazo[1,2-a]pyridin-3-yl]methyl}piperazin-1-yl)(2-fluorophenyl)methanone]", "values": [{"measurement": "Duration of action [min], mean value", "setting": "Formulation 1 (no glycerol), 100 μg per pig nasal, -50 mbar", "value": 180, "unit": "min"}, {"measurement": "Duration of action [min], mean value", "setting": "Formulation 1 (no glycerol), 100 μg per pig nasal, -100 mbar", "value": 180, "unit": "min"}, {"measurement": "Duration of action [min], mean value", "setting": "Formulation 3 (glycerol 2.5% w/v), 100 μg per pig nasal, -50 mbar", "value": ">300", "unit": "min"}, {"measurement": "Duration of action [min], mean value", "setting": "Formulation 3 (glycerol 2.5% w/v), 100 μg per pig nasal, -100 mbar", "value": 270, "unit": "min"}]}, {"smiles": "O=C(C1CCCC1)N1CCN(Cc2c(-c3ccc(Br)cc3)nc3ccccn23)CC1", "note": "[Example 1, (4-{[2-(4-bromophenyl)imidazo[1,2-a]pyridin-3-yl]methyl}piperazin-1-yl)(cyclopentyl)methanone]", "values": [{"measurement": "Duration of action [min], mean value", "setting": "Formulation 1 (no glycerol), 10 μg per pig nasal, -50 mbar", "value": 150, "unit": "min"}, {"measurement": "Duration of action [min], mean value", "setting": "Formulation 1 (no glycerol), 10 μg per pig nasal, -100 mbar", "value": 120, "unit": "min"}, {"measurement": "Duration of action [min], mean value", "setting": "Formulation 3 (glycerol 2.5% w/v), 10 μg per pig nasal, -50 mbar", "value": ">270", "unit": "min"}, {"measurement": "Duration of action [min], mean value", "setting": "Formulation 3 (glycerol 2.5% w/v), 10 μg per pig nasal, -100 mbar", "value": 240, "unit": "min"}]}, {"smiles": "COc1cccc(C(=O)N2CCN(Cc3c(-c4ccc(Cl)cc4)nc4ccccn34)CC2)n1", "note": "[Example 3, (4-{[2-(4-chlorophenyl)imidazo[1,2-a]pyridin-3-yl]methyl}piperazin-1-yl)(6-methoxypyridin-2-yl)methanone]", "values": [{"measurement": "Duration of action [min], mean value", "setting": "Formulation 1 (no glycerol), 30 μg per pig nasal, -100 mbar", "value": "180* min"}, {"measurement": "Duration of action [min], mean value", "setting": "Formulation 1 (phosphate buffer pH 7/polysorbate 80, no glycerol), 3 μg per pig nasal, -100 mbar", "value": 150, "unit": "min"}, {"measurement": "Duration of action [min], mean value", "setting": "Formulation 2 (5% w/v glycerol 85%, 4.25 absolute), 3 μg per pig nasal, -100 mbar", "value": 210, "unit": "min"}, {"measurement": "Duration of action [min], mean value", "setting": "Formulation 3 (2.5% w/v glycerol 85%, 2.125 absolute), 3 μg per pig nasal, -100 mbar", "value": 240, "unit": "min"}, {"measurement": "Duration of action [min], mean value", "setting": "Formulation 3 (2.5% w/v glycerol 85%, 2.125 absolute), 30 μg per pig nasal, -100 mbar", "value": 390, "unit": "min"}, {"measurement": "Duration of action [min], mean value", "setting": "Formulation 4 (1% w/v glycerol 85%, 0.85 absolute), 3 μg per pig nasal, -100 mbar", "value": 150, "unit": "min"}, {"measurement": "Duration of action [min], mean value", "setting": "Formulation 5 (2.5% w/v glycerol 85% + 20% w/v PEG400), 3 μg per pig nasal, -100 mbar", "value": 240, "unit": "min"}, {"measurement": "Duration of action [min], mean value", "setting": "Formulation 6 (20% w/v propylene glycol, no glycerol), 30 μg per pig nasal, -100 mbar", "value": 180, "unit": "min"}, {"measurement": "Duration of action [min], mean value", "setting": "Formulation 7 (1.25% w/v Na-CMC, no glycerol), 3 μg per pig nasal, -100 mbar", "value": 120, "unit": "min"}]}]}
